One assay concerns MCF-7. Put plainly: Growth inhibition by MTT, MCF-7 breast cancer cells. The class given is cell-based, Human. As to conditions: Homo sapiens, MCF7, 72 h exposure. How it is done:
(§1) Growth inhibitory effects of NATURA and other agents on human cancer cells were determined by standard MTT (3-(4,5-dimethylthiazol-2-yl)-2,5-diphenyltetrazolium bromide Test) as described previously. Briefly, cancer cells grown exponentially were aliquoted into 96-well plates at a density of 5000 cells/200 μl per well in RPMI 1640 medium containing 10% FBS overnight. The cells in the plates were then exposed to series of dilution of indicated agent. After 72 h of incubation, 100 μl of the medium was removed from each of the wells and 50 μl of a 1 mg/ml solution of 3-(4,5-dimethylthiazol-2-yl)-2,5-diphenyltetrazolium bromide (MTT) was added to each well and the cells were incubated for additional 4 h. 200 μl of solution of 0.04 N HCl-isopropanol was added to each well to dissolve the black fromazan participates, and absorbance at 540 nm was measured on a 96-Well.
as §1, with “FIGS. 3-5 show the anticancer affects” for “Growth inhibitory effects”, “NATURA in MCF-7 breast cancer cells, DLD-1 colon cancer cells,” for “NATURA”, “LNCaP hormone-dependent prostate” for “other agents on human”, “cells. The” for “cells were determined by standard MTT (3-(4,5-dimethylthiazol-2-yl)-2,5-diphenyltetrazolium bromide Test) as described previously. Briefly,”, “fetal bovine serum (FBS)” for “FBS”, “96-Well Microplate Reader. Each experiment was repeated at least three times.” for “96-Well.”

The subject of a further assay is SKBR-3. The assay can be described thus: Growth inhibition by MTT, SKBR-3 breast cancer cells. The assay is classed as cell-based, Human. As to conditions: Homo sapiens, read-out: IC50 SKBR-3. As to the method:
as §1

In the next assay the test system is LOVO. Put plainly: Growth inhibition by MTT, LOVO colon cancer cells. The assay is classed as cell-based, Human. As to conditions: Homo sapiens, LoVo; MTT, 72 h exposure; read-out: IC50 LOVO. How it is done: as §1
The subject of the next assay is PC-3. The assay can be described thus: Growth inhibition by MTT, PC-3 prostate cancer cells. The class given is cell-based, Human. The note with it: Homo sapiens, PC-3; MTT, 72 h exposure; read-out: IC50 PC-3. As to the method:
as §1

For a further assay, the system named is DU145. Put plainly: Growth inhibition by MTT, DU145 prostate cancer cells. The assay is classed as cell-based, Human. The note with it: Homo sapiens, DU-145; MTT, 72 h exposure; read-out: IC50 DU145. As to the method:
as §1

Another assay concerns human cancer cell lines. The assay can be described thus: Growth inhibition by MTT, all tested human cancer cell lines. The class given is cell-based. The note with it: Homo sapiens, 72 h, read-out: IC50, growth inhibitory effects on all tested human cancer cell lines, range over breast, colon, prostate lines, three day exposure. As to the method: as §1
The subject of a further assay is cdk4/6. The assay can be described thus: cdk4/6 activity immuno-precipitated from treated LNCaP cells. The assay is classed as cell-based, Human. How it is done: (§2) Assay for cyclin dependent kinase activity: HUVEC and LNCaP cells were cultured in EMB (endothelial cell basal medium) and RPMI 1640 containing 10% FBS, respectively. The cells grown exponentially were exposed to indicated concentrations of meisoindigo or NATURA for 24 hr. The cells were harvested, washed, and total proteins extracted as described previously. One hundred μg of the proteins were immuno-precipitated using antibodies against cdk2, cdk4/6, PKC, ERK2 or cyclin D1 overnight at 4° C. in the presence of a cocktail of protease inhibitors. The immuno-precipitates were washed 4 times with protein extraction buffer and once with kinase assay buffer, and reacted with 75 μg/ml histone H1 in the presence of [γ-^32P]-ATP (2.5 μCi/10 μM). The phosphorylated histone H1 (represent cdk activity) was measured by scintillation counting or by SDS-polyacrylaimde gel electrophoresis. The direct inhibitory effects of Meisoindigo and NATURA were also measured by reaction of immuno-purified specific enzyme from untreated cells directly with the Meisoindigo or NATURA.
as §2, with “HUVEC” for “Assay for cyclin dependent kinase activity: HUVEC”, “either cdk4/6” for “cdk2, cdk4/6, PKC, ERK2”, “[γ-^32P]-ATP.” for “[γ-^32P]-ATP (2.5 μCi/10 μM).”, “counting.” for “counting or by SDS-polyacrylaimde gel electrophoresis. The direct inhibitory effects of Meisoindigo and NATURA were also measured by reaction of immuno-purified specific enzyme from untreated cells directly with the Meisoindigo or NATURA.”

In another assay the test system is LNCaP cells. The assay can be described thus: DNA fragmentation (ladder) in LNCaP cells. The class given is cell-based, Human. As to conditions: 15 μM, 2 days. As to the method: Once cancer cells have been arrested at G1 phase by either derivatives of the invention, such as, Meisiondigo or NATURA, they will either differentiate or enter apoptosis. […] FIG. 8 confirms that Meisoindigo and NATURA cause apoptosis. The formation of DNA fragmentation (ladder) were measured, an indicator of cell apoptosis, in both LNCaP prostate and N2A neuroblastoma cells. To do this LNCaP and neuroblastoma N2A cells at exponential growth phase were exposed to indicated concentrations of Meisoindigo or NATURA or Taxol (20 nM, as a positive control) for 2 days. The cells were harvested, washed and DNA extracted. Approximately 2 μg per lane of DNA were subjected to 2% agarose gel electrophoresis.
Induction of Apoptosis: As we mentioned previously that cancer cells probably have two options after arrest at G1 phase, i.e. differentiation or apoptosis. […] To confirm our hypothesis and earlier observations, we measured poly(ADP-ribose) polymerase (PARP) degradation and the formation of DNA fragmentation (ladder), indicators of cell apoptosis, in both LNCaP prostate and N2A neuroblastoma cells. LNCaP and neuroblastoma N2A cells at exponential growth phase were exposed to indicated concentrations of Meisoindigo or NATURA or Taxol (20 nM, as a positive control) for 2 days. The cells were harvested, washed and DNA extracted. […]

A further assay relates to Walker 256. The assay can be described thus: Anticancer activity against Walker 256 sarcoma.
[1] abbreviates: 15 μM, LNCaP cells exposed 24 h.
The mark [2] stands for this setting: Walker 256, rat, oral, Indirubin 100 × 9, Meisoindigo 106 × 9 mg/kgxd.

The values that follow come from patent US6933315B2, “Derivatives of isoindigo, indigo and indirubin and methods of treating cancer” (priority 2001, dated 2005).

The structures appear in SMILES notation. Read-outs that look alike come from different tables or passages of the source.

Protocol for Walker 256: Anticancer activity against Walker 256: Wistar rats with body weights between 50 to 55 grams, were randomly divided into several groups, ten of each, respectively. Approximately 2×10^6 of the Walker sarcoma cells were transplanted into a Wistar rat. Twenty-four hours after the transplantation, equal molar dosage (0.384 mM/kg) of NATURA or other sugar derivatives were given orally for 10 days. The animals in the control group were given 0.1 ml saline (drug vehicle, negative control) for the same periods of time as treated group. Twenty-four hours after the last administration, the animals were sacrificed and tumors were removed and weighed.
Briefly, C57 mice, body weight between 18 to 22 grams, and rat, body weight between 50 to 55 grams, were randomly divided into several groups, ten of each, respectively. Approximately 2×10^6 of Lewis cancer cells or Walker sarcoma cells were transplanted into mice or rat. […] The animals in the control group were given 0.1 ml saline (drug vehicle, negative control) for the same periods of time as treated group. The animals at end of the treatment were sacrificed and tumors were removed and weighed.
In order to assess the anticancer activities of NATURA and other sugar derivatives, Wistard rats transplanted with W256 were given the same molar of the tested compounds (0.384 mM/kg) for the same period of time (10 days).

In the case of `CC(=O)OC1COC(N2C(=O)/C(=C3/C(=O)Nc4ccccc43)c3ccccc32)C(OC(C)=O)C1OC(C)=O` [NATURA, 1-(β-D-O-Triacetyl-xylopyranosyl)-isoindigo], the IC50 with MCF-7 was 2.91 ± 0.28 µM; in the assay on SKBR-3 (SK-BR-3, MTT, 72 h exposure) it was 1.71 ± 0.14 µM; in the assay with LOVO it was 4.31 ± 0.59 µM; in the assay with PC-3, 2.41 ± 0.39 µM; in the assay with DU145 it was 6.92 ± 0.73 µM; in the assay on human cancer cell lines, 1.64 to 6.92 µM. In addition, the “inhibition of D cyclins mediated cdk4/6 enzyme activity” value in the assay with cdk4/6 (5.0 μM, LNCaP cells, 24 h) is given as “Over 56%”; with cdk4/6 (setting [1]), “complete inhibition”. For the same compound, the “activity on cdk4 compared with cdk2” value in the assay with cdk4/6 (5 μM, LNCaP cells, 24 hours) is reported as “slight stronger activity”. In addition, the “inhibitory affect on cdk4/6 activity compared with same concentration of meisoindigo” value in the assay with cdk4/6 (5.0 μm, FIG. 7) was “greater inhibitory affect”. In addition, in the assay on LNCaP cells, the DNA fragmentation result is on record as “significant DNA fragmentation”. The “Percent of Inhibition against Walker 256” value in the assay on Walker 256 (Wistar rats, 0.384 mM/kg orally for 10 days) is given as 77%; in the assay on Walker 256 (Wistar rats, 0.384 mM/kg orally for 10 days; listed as Xyl-Ac*NATURA)) it was 77.5%.

For `CN1C(=O)/C(=C2/C(=O)Nc3ccccc32)c2ccccc21` [Meisoindigo], the half-inhibitory concentration (IC50) is 4.37 ± 0.31 µM with MCF-7; 2.17 ± 0.17 µM with SKBR-3 (SK-BR-3, 72 h); 5.76 ± 0.72 µM in the assay with LOVO; 3.26 ± 0.51 µM in the assay with PC-3; 8.31 ± 0.93 µM in the assay on DU145; 2.15 to 8.31 µM in the assay with human cancer cell lines. The “inhibition of D cyclins mediated cdk4/6 enzyme activity” value in the assay on cdk4/6 (5.0 μM, LNCaP cells, 24 h) was “Over 56%”; with cdk4/6 (setting [1]), “complete inhibition”. In the assay with LNCaP cells, the DNA fragmentation result is given as “significant DNA fragmentation”. In addition, the “Inhibition (%)” value with Walker 256 (setting [2]) turned out to be 71.6 ± 3.1%. Also, the “Tumor Size X ± SD” value in the assay with Walker 256 (setting [2]) was found to be 2.10 ± 0.17.

Broadly, the IC50 is the midpoint of a concentration-inhibition curve.
